The test system of this assay is primary rat mixed cortical cells. The assay can be described thus: In vitro myelination assay (MBP positive myelin strands, fold myelin pixels above background). It counts as cell-based. The conditions noted are these: Rattus norvegicus, relative to baseline of no added compound; for fold induction at 1 µM: 1.0 μM compound; for fold induction at 10 µM: 10.0 μM compound. The source says: In Vitro Myelination Assay
Compounds were screened for their ability to induce myelination using a primary rat mixed cortical cell culture assay, which contains neurons, oligodendrocyte precursor cells, oligodendrocytes, astrocytes and microglia. The assay quantifies myelination by measuring myelin basic protein (MBP) immunofluorescent positive myelin strands from images taken using a Cellomics Array Scan (model Arrayscan VTI HCS Reader) or a Molecular Devices Image Xpress (model IXM XL) high content imager. The myelin strands were quantitated using a custom created myelin detection software program. Test compounds were dissolved in DMSO to make a 10 mM initial stock solution. Dilutions were made in myelination medium to obtain the final solutions for the assay and were tested in primary rat mixed cortical cells at selected doses.
Primary rat mixed cortical cells were prepared from harvested cerebral cortices from postnatal day 1 (P1) rats (P1 Rat CD® IGS pups) were purchased from Charles River) in Complete Dissociation Medium, wherein the meninges were removed and the cortical tissue chopped with a razor blade into ˜1 mm^3 pieces. Tissue from 1-3 pups was collected and placed into 15 ml conical tubes in a total volume of 5 ml of Complete Dissociation Medium. Activated papain (3 ml) was added to each 15 ml conical tube and tissue was incubated at 37° C. for 30 minutes. After the 30 minute incubation, DNase (Sigma D4527; 75 μl of a 1 mg/ml stock) was added to each tube, followed by mechanical trituration using a 2 ml serological pipette and autopipettor to gently dissociate the tissue. Following trituration, larger tissue pieces were allowed to settle by gravity, and the supernatant containing dissociated cells was transferred to a 50 ml conical tube with 4 ml of trypsin inhibitor. Cells were pelleted by centrifugation, resuspended in myelination medium and filtered through a 40 μm filter. Cells were then seeded in 96-well plates (BD Biosciences, Black, PDL-coated, Cat. No. 356640) at 87,500-95,000 cells/well in a final volume of 200 μl of Myelination Medium in the presence or absence of compound and cultured for 14 days in a humidified 37° C. incubator with 5% CO2. Half the medium was removed and replaced with fresh medium containing 1× compound on days 6 and 10. Using a Biotek automatic plate washer (model Biomek® FXP Laboratory Automation Workstation), cells were fixed with 4% paraformaldehyde on day 14, washed with PBS and blocked in 5% normal goat serum (Vector Laboratories, S-1000) in 0.1% PBS-TritonX-100 (PBST) for 1 hour. Cells were stained with 1:500 anti-MBP (Covance, cat # SMI99) primary antibody in 1% normal goat serum in 0.1% PBST for 2 hours at room temperature followed by 2 washes with PBST. A final incubation in secondary antibody (1:1000, Invitrogen, Alexa-488 anti-mouse IgG2b) and 1:10,000 Hoechst dye in 1% normal goat serum in 0.1% PBST was performed for 2 hours at room temperature. Plates were washed with PBS and then scanned on a Cellomics Array Scan using a 10× objective (25 images per well) or the Image Xpress using a 10× objective (9 image per well). Images were analyzed using Vertex myelin detection software (described below) to quantify total MBP myelin pixels per well. Fold myelin pixels above background at two concentrations (1.0 μM and 10.0 μM) relative to baseline of no added compound are reported below in Table 4. Standard deviation for each compound concentration was calculated using all replicates and using a standard deviation formula commonly used in the art.
One of skill in the art would recognize that for this type of primary neuronal mixed cell assay variability between different assay runs is to be expected even though the protocol is the same for each assay run. For instance, variability may be due to small differences in cell viability, cell density, age of the animals, etc.
Vertex Myelin Detection Software: […]

[1] abbreviates: read-out: Fold myelin pixels above background, 1.0 μM.
Where [2] appears, read: read-out: Fold myelin pixels above background, 10.0 μM.
The mark [3] stands for this setting: read-out: Fold myelin pixels above background.

Like-named read-outs stand apart in the source and are kept apart here. A value given as a limit tells only on which side of the number the result lay.

As for `Cc1cc(Nc2ncn(-c3ccccc3)n2)cc(N2CCN(C3CCC3)CC2)c1` [Compound 290, N-[3-(4-cyclobutylpiperazin-1-yl)-5-methyl-phenyl]-1-phenyl-1,2,4-triazol-3-amine], the fold induction at 1 µM under setting [1] was 1000 to 10000. Also, the fold induction at 10 µM under setting [2] is 1000 to 10000.

Consider `COc1cc(Nc2ncn(-c3cccc(F)c3)n2)cc(N2CCN(C3COC3)CC2)c1` [Compound 258, 1-(3-fluorophenyl)-N-[3-methoxy-5-[4-(oxetan-3-yl)piperazin-1-yl]phenyl]-1,2,4-triazol-3-amine], for which the fold induction at 1 µM under setting [1] was 100 to 1000. Further, the fold induction at 10 µM under setting [2] was 1 to 10.

As to `FC(F)c1cc(Nc2ncn(-c3ccccc3)n2)nc(N2CCN(C3COC3)CC2)c1` [Compound 526, 4-(difluoromethyl)-6-[4-(oxetan-3-yl)piperazin-1-yl]-N-(1-phenyl-1,2,4-triazol-3-yl)pyridin-2-amine], under setting [3], the fold induction at 1 µM is 100 to 1000 and the fold induction at 10 µM lay in the range of 10 to 100.

As for `CCc1cc(Nc2ncn(-c3cccc(F)c3F)n2)cc(N2CCN(C3COC3)CC2)c1` [Compound 276, 1-(2,3-difluorophenyl)-N-[3-ethyl-5-[4-(oxetan-3-yl)piperazin-1-yl]phenyl]-1,2,4-triazol-3-amine], under setting [1], the fold induction at 1 µM was at most 1. For the same compound, the fold induction at 10 µM under setting [2] fell in the range of 1 to 10.

With `Fc1ccc(-n2cnc(Nc3cc(F)cc(N4CCCC4)c3)n2)cc1` [Compound 167, 1-(4-fluorophenyl)-N-(3-fluoro-5-pyrrolidin-1-yl-phenyl)-1,2,4-triazol-3-amine], the fold induction at 1 µM under setting [1] is at most 1. The fold induction at 10 µM under setting [2] fell in the range of 100 to 1000.

In the case of `Cc1cc(Nc2ncn(-c3cc(F)cc(F)c3)n2)c(F)c(N2CC3(CNC3)C2)c1` [Compound 688, N-[3-(2,6-diazaspiro[3.3]heptan-2-yl)-2-fluoro-5-methyl-phenyl]-1-(3,5-difluorophenyl)-1,2,4-triazol-3-amine], under setting [3], the fold induction at 1 µM is 1 to 10 and the fold induction at 10 µM is at most 1.

Turning to `Cc1cc(Nc2ncn(-c3cc(F)cc(F)c3)n2)cc([C@@]2(C)CNC(=O)O2)c1` (single isomer, unassigned) [Compound 679], under setting [3], the fold induction at 1 µM lay in the range of 10 to 100 and the fold induction at 10 µM is 1 to 10.

`Cc1cc(Nc2ncn(-c3ccc(F)c(F)c3)n2)cc(OCC2CCOCC2)c1` [Compound 627, 1-(3,4-difluorophenyl)-N-[3-methyl-5-(tetrahydropyran-4-ylmethoxy)phenyl]-1,2,4-triazol-3-amine]: under setting [3], the fold induction at 1 µM was in the range of 1 to 10 and the fold induction at 10 µM fell in the range of 10 to 100.

On to `FC(F)(F)c1cc(Nc2ncn(-c3cnccn3)n2)cc(N2CCOCC2)c1` [Compound 357, N-[3-morpholino-5-(trifluoromethyl)phenyl]-1-pyrazin-2-yl-1,2,4-triazol-3-amine], for which the fold induction at 1 µM under setting [1] is 1 to 10. Further, under setting [2], the fold induction at 10 µM was in the range of 1 to 10.

Consider `Cc1cc(Nc2ncn(-c3cc(F)cc(F)c3)n2)cc(C2CCN(C)CC2)c1` [Compound 151, 1-(3,5-difluorophenyl)-N-[3-methyl-5-(1-methyl-4-piperidyl)phenyl]-1,2,4-triazol-3-amine], for which the fold induction at 1 µM under setting [1] was in the range of 10 to 100. Further, the fold induction at 10 µM under setting [2] was at most 1.

On to `Fc1cc(Nc2ncn(-c3ccc(F)cc3F)n2)cc(NC2CNC2)c1` [Compound 177, N1-(azetidin-3-yl)-N3-[1-(2,4-difluorophenyl)-1,2,4-triazol-3-yl]-5-fluoro-benzene-1,3-diamine], for which the fold induction at 1 µM under setting [1] was at most 1. In addition, the fold induction at 10 µM under setting [2] is at most 1.

For `FC(F)c1cc(Nc2ncn(-c3ccccc3)n2)cc(N2CCNCC2)c1` [Compound 62, N-[3-(difluoromethyl)-5-piperazin-1-yl-phenyl]-1-phenyl-1,2,4-triazol-3-amine], the fold induction at 1 µM under setting [1] is 1000 to 10000. Also, the fold induction at 10 µM under setting [2] is at most 1.

The record behind these values is patent US10766869B2, “Triazoles for the treatment of demyelinating dieases” (Vertex Pharmaceuticals Incorporated, priority 2015, dated 2020).
